Test results taken from US20030152910A1, “Method for identification and quantification of kinase inhibitors” (priority 1999, published 2003).
Values joined by “and” are separate entries in the source; they are usually repeats but may differ in a detail not shown here. Equal entries are not always repeated. Where two headings read alike, the source gives them in different places.

Key:
[1] = system: 293 cells transfected with wild-type or mutant pUL97 (K355M catalytically inactive); format: cell-based, human; conditions: 5 nM to 500 nM inhibitor, GCV 5-40 μM, wild-type and mutant pUL97, LDH 5 d posttransfection
From the text: If a test compound is capable of inhibiting the kinase, but additionally has a cytotoxic activity, no rescue from cell death would be observed. Thus, the method of the invention preferably comprises the additional step (e) distinguishing between (i) noncytotoxic test compounds having kinase inhibiting properties and (ii) test compounds having kinase inhibiting properties but additional cytotoxic side effects. Furthermore, the effect of a given test compound may be determined at several different concentrations of the test compound in order to obtain a more accurate information of the kinase inhibiting properties and possible unwanted cytotoxic side effects. […] In this manner, the concentration dependency and the target specificity of the inhibitory effect of the test compound and the concentration dependency of a possible cytotoxic effect may be determined together.
Substrate (e.g. ganciclovir) is then added in an appropriate concentration to transfected cells (as indicated in the diagram). […] As a measurement for cell death, either the colour conversion of the medium (containing phenol red as a pH indicator) can the quantified photometrically, or the LDH activity within the residual cell layer can be determined (resulting in low activities when extensive cell death has occurred). Other methods of quantification are also possible (e.g. measurement of cell proliferation). […]

[2] = target: T1, human cytomegalovirus UL97 protein kinase (Human cytomegalovirus, UniProt P16788); test: UL97 in-cell-activity assay (transfected 293 cells + GCV; colour conversion / LDH read-out); format: cell-based
T1 construct: expressed in transfected cells
Procedure: Human embryonic kidney cells 293 (ATCC CRL-1573), as cultivated with DMEM medium containing 5% fetal calf serum (FCS), were harvested by trypsinization, rinsed with PBS and seeded in 96-well plates at a cell number of 20,000 per well.
Transfection (Lipofectamin Plus reagents, GibcoBRL) was performed at a cell layer confluency of 50-75%. For this, identical transfection conditions were chosen for 24 wells of the 96-well plate to obtain determinations over a 8-well line in triplicate. One transfection set-up for 24 wells was composed as follows:
Meanwhile, culture media of the 96-well plates were removed by the use of a multichannel pipette and a 50-μl volume of fresh DMEM-0% FCS was given in each well. Then, 25 μl of each transfection set-up was added per well. Plates were incubated for 5 h at 37° C. in a 5% CO2 atmosphere. Subsequent to this incubation, a 125-μl volume of DMEM-10% FCS was added per well and incubated over night at 37° C. in a 5% CO2 atmosphere.
Transfection media were removed from the cells by the use of a multichannel pipette. […]
Visual and photometric determinations of the colour conversion of the phenol red-supplemented culture medium was performed by the use of a computer scanner and an ELISA reader (OD 560 nm).
Measurement of the lactate dehydrogenase (LDH) acitivity in the residual cell layer was performed with the CytoTox 96 Non-Radioactive Cytotoxicity (Promega). […] Thereafter, 50 μl of stop buffer was added and the colour reaction was quantitated by the use of an ELISA reader (OD 490 nm). […]
Five days after addition of the substances, the read-out of signals was performed by the photometric quantification of the colour conversion of the culture medium and, for comparison, by the measurement of LDH activity in the residual cell layers. Qualitative/semi-quantitative illustrations are given by computer scanning figures in (a) for colour conversion, and in (b) for LDH activity. Quantitative values are presented as the results of photometric determinations in (c) for colour conversion, and in (d) for LDH activity. […]

[3] = system: Non-transfected 293 cells devoid of UL97 kinase activity; test: Growth inhibition of non-transfected 293 cells by GCV (FIG. 11B); format: cell-based, human
[4] = system: UL97-transfected 293 cells (293UL); test: Growth inhibition of 293UL cells by GCV (FIG. 11A); format: cell-based, human; conditions: for IC50: grown 90 h in presence of GCV
Procedure: 293 cells transfected with pUL97 expression construct (pcDNA3-UL97; see above under 2.1.) were grown for 14 d in presence of geneticin (750 μg/ml). Individual clones were isolated (minimal dilution), re-tested for geneticin resistance and for sensitivity to 100 μM GCV. Clones identified as geneticin resistant and GCV-sensitive were expanded and stored frozen in aliquots for further experiments, after having verified by Western blot their capacity to express UL97 protein.
293UL cells were routinely grown in DMEM supplemented with 10% FCS, glutamine (1%), pyruvate (1%), geneticin (final 0.5 mg G418/ml culture), and penicillin/streptomycin (1%). Medium was changed every 3-4 d, and cells were subcultured before reaching confluency by trypsin/EDTA treatment (exposure of adherent cells to 5 mg/ml trypsin and 2 mg/ml EDTA, dissolved in sterile 0.85% NaCl) and re-seeding in at least 5-fold dilution. Cells were maximally 10 times subcultured before a new frozen batch was used.
For routine antiproliferative assays, 293 UL cells were suspended at 13.8×10^3 cells/ml in complete medium, and 145 μl/well (2000 cells) of this suspension were seeded in 96-well flat-bottom plates (Nunclon #167008). After attachment of the cells for 24 h, drugs were added: All wells received 5 μl GCV (4 mM in complete medium, final concentration 100 μM), and each 3 wells received 50 μl compound (40 μM in complete medium+0.4% DMSO). A control series received 50 μl 40 μM compound only in the absence of GCV. Another control plate, which had received cells or medium only, was glutaraldehyde-fixed or frozen (see below) at the time of drug addition and stained for quantitation of cell density.
Cells were further incubated for 72 h and then analyzed for proliferation (staining with methylene blue or fluorescent dyes, see section 2.4).
A) UL97-transfected 293 cells 1,2,3,4: individual IC50 profiles (averages of triplicates); cells grown for 90 h in presence of GCV.

CN[C@@H]1C[C@H]2O[C@@](C)([C@@H]1OC)n1c3ccccc3c3c4c(c5c6ccccc6n2c5c31)C(=O)NC4 [STP, staurosporine]
inherent (nonspecific) cytotoxicity versus specific pUL97 inhibition [1]: nonspecific cytotoxicity

Cn1c2ccccc2c2c3c(c4c5ccccc5n(CCC#N)c4c21)CNC3=O [GÖ6976]
specific inhibition of UL97 activity ([2]; 5 nM and 50 nM inhibitor, GCV 2.5 and 5 μM, pl18neo-UL97, LDH activity after 5 days): stronger at the 50-nM than at the 5-nM concentration
identification as UL97-specific inhibitor ([2]; 50 nM inhibitor, GCV 1.25-160 μM, 5 days, colour conversion and LDH activity): identified as UL97-specific inhibitors
inhibition of UL97 activity at the highest concentration (decrease in LDH activity indicates cytotoxicity) ([2]; 500 nM inhibitor, GCV 2.5 and 5 μM, LDH activity after 5 days): markedly decreased

Nc1nc(O)c2ncn(COC(CO)CO)c2n1 [GCV, ganciclovir]
IC50 ([3]; Homo sapiens, HEK293, non-transfected 293 cells): 3700 µM
effect on proliferation of wild-type 293 cells ([3]; up to 100 μM GCV): not affected
reduction of cell growth ([4]; 100 μM GCV, 3 d, methylene blue): 50%
IC50 ([4]; Homo sapiens, HEK293, 90 h, average ± s.d. of 4 profiles, read-out: IC50 growth inhibition, average): 26 ± 11 µM
IC50 ([4]; read-out: individual IC50 profiles (averages of triplicates)): 41 µM and 19 µM and 17 µM
